Measured values from ChEMBL document CHEMBL5543136, “Discovery of Novel Heterotricyclic Compounds as DNA-Dependent Protein Kinase (DNA-PK) Inhibitors with Enhanced Chemosensitivity, Oral Bioavailability, and the Ability to Potentiate Cancer Immunotherapy” (J Med Chem, 2024).
The source made the active and inactive calls. The rule behind the calls is not given here.

Experiments:
[1] = tested on: B16-F10; assay: Synergistic antiproliferative activity against mouse B16-F10 cells assessed as reduction in cell viability incubated for 48 hrs in presence of doxorubicin by CCK-8 assay; assay type: functional, cell-based; conditions: B16-F10, 48 h
[2] = tested on: B16-F10; assay: Immunomodulatory activity in mouse B16-F10 cells implanted in C57BL/6 mouse assessed as percentage of CD3 positive CD8 positive cells in tumor at 10 mg/kg, ip administered once daily for 13 days by flow cytometric analysis (reference value: 0.99%); assay type: functional; conditions: time 13 day
[3] = tested on: B16-F10; assay: Immunomodulatory activity in mouse B16-F10 cells implanted in C57BL/6 mouse assessed as percentage of CD3 positive CD8 positive cells in tumor at 10 mg/kg, ip QD co-administered with PD-L1 antibody for 13 days by flow cytometric analysis (reference value: 0.99%); assay type: functional; conditions: time 13 day
[4] = Half-life in male Sprague-Dawley rat at 2 mg/kg, iv measured after 48 hrs by LC-MS/MS analysis; assay type: ADME, organism-based; conditions: in vivo
[5] = tested on: Jurkat; assay: Induction of cell cycle arrest in human Jurkat cells assessed as increase in G2/M phase cells at 1 uM incubated for 24 hrs in presence of doxorubicin by PI staining based flow cytometric analysis; assay type: functional
[6] = tested on: HepG2; assay: Inhibition of DNA damage repair in human HepG2 cells assessed as reduction in gammaH2AX fluorescence intensity by DAPI staining based immunofluorescence analysis; assay type: functional, cell-based; conditions: dose 10-40 µM
[7] = tested on: CT26; assay: Antitumor activity against mouse CT26 cells implanted in BALB/c mouse assessed as reduction in tumor weight by measuring tumor growth inhibition at 10 mg/kg, ip QD co-administered with doxorubicin for 21 days relative to control; assay type: functional; conditions: CT26, 504 h, time 21 day, read-out: TGI
[8] = Apparent volume of distribution in male Sprague-Dawley rat at 2 mg/kg, iv measured after 48 hrs by LC-MS/MS analysis; assay type: ADME, organism-based; conditions: in vivo, read-out: Vz
[9] = tested on: CT26; assay: Antiproliferative activity against mouse CT26 cells assessed as reduction in cell viability incubated for 48 hrs by CCK-8 assay; assay type: functional, cell-based; conditions: CT26, 48 h
[10] = C0 in male Sprague-Dawley rat at 2 mg/kg, iv measured after 48 hrs by LC-MS/MS analysis; assay type: ADME, organism-based; conditions: in vivo
[11] = Selectivity ratio of IC50 for antiproliferative activity against human Jurkat cells to IC50 for synergistic antiproliferative activity against human Jurkat cells in presence of doxorubicin; assay type: functional
[12] = AUC (0 to t) in male Sprague-Dawley rat at 2 mg/kg, iv measured after 48 hrs by LC-MS/MS analysis; assay type: ADME, organism-based; conditions: in vivo
[13] = Toxicity in C57BL/6 mouse implanted with mouse B16-F10 cells assessed as effect on body weight at 10 mg/kg, ip administered once daily for 13 days; assay type: organism-based; conditions: in vivo, 312 h, time 13 day
[14] = tested on: B16-F10; assay: Immunomodulatory activity in mouse B16-F10 cells implanted in C57BL/6 mouse assessed as percentage of CD3 positive CD4 positive cells in tumor at 10 mg/kg, ip QD co-administered with PD-L1 antibody for 13 days by flow cytometric analysis (reference value: 0.86%); assay type: functional; conditions: time 13 day
[15] = Cmax in male Sprague-Dawley rat at 10 mg/kg, po measured after 48 hrs by LC-MS/MS analysis; assay type: ADME, organism-based; conditions: in vivo
[16] = tested on: B16-F10; assay: Antitumor activity against mouse B16-F10 cells implanted in C57BL/6 mouse assessed as tumor growth inhibition at 10 mg/kg, ip QD co-administered with SWS1 for 13 days relative to control; assay type: functional; conditions: B16-F10, 312 h, time 13 day, read-out: TGI
[17] = tested on: Jurkat; assay: Induction of cell cycle arrest in human Jurkat cells assessed as decrease in S phase cells at 1 uM incubated for 24 hrs in presence of doxorubicin by PI staining based flow cytometric analysis; assay type: functional
[18] = Toxicity in BALB/c mouse implanted with mouse CT26 cells assessed as death at 10 mg/kg, ip QD co-administered with doxorubicin for 21 days; assay type: organism-based; conditions: in vivo, 504 h, time 21 day
[19] = AUC (0 to infinity) in male Sprague-Dawley rat at 2 mg/kg, iv measured after 48 hrs by LC-MS/MS analysis; assay type: ADME, organism-based; conditions: in vivo
[20] = tested on: B16-F10; assay: Immunomodulatory activity in mouse B16-F10 cells implanted in C57BL/6 mouse assessed as percentage of CD3 positive CD8 positive cells in tumor at 10 mg/kg, ip QD co-administered with SWS1 for 13 days by flow cytometric analysis (reference value: 0.99%); assay type: functional; conditions: time 13 day
[21] = Toxicity in C57BL/6 mouse implanted with mouse B16-F10 cells assessed as effect on body weight at 10 mg/kg, ip QD co-administered with PD-L1 antibody for 13 days; assay type: organism-based; conditions: in vivo, 312 h, time 13 day
[22] = tested on: Jurkat; assay: Antiproliferative activity against human Jurkat cells assessed as reduction in cell viability incubated for 48 hrs by CCK-8 assay; assay type: functional, cell-based
[23] = Toxicity in C57BL/6 mouse implanted with mouse B16-F10 cells assessed as effect on body weight at 10 mg/kg, ip QD co-administered with SWS1 for 13 days; assay type: organism-based; conditions: in vivo, 312 h, time 13 day
[24] = tested on: CT26; assay: Synergistic antiproliferative activity against mouse CT26 cells assessed as reduction in cell viability incubated for 48 hrs in presence of doxorubicin by CCK-8 assay; assay type: functional, cell-based; conditions: CT26, 48 h
[25] = Clearance in male Sprague-Dawley rat at 2 mg/kg, iv measured after 48 hrs by LC-MS/MS analysis; assay type: ADME, organism-based; conditions: in vivo
[26] = tested on: Cell membrane; assay: Induction of mitochondrial membrane potential loss in human Jurkat cells at 1 uM incubated for 24 hrs by JC-1 staining based flow cytometric analysis; assay type: cell membranes
[27] = Tmax in male Sprague-Dawley rat at 2 mg/kg, iv measured after 48 hrs by LC-MS/MS analysis; assay type: ADME, organism-based; conditions: in vivo
[28] = Toxicity in C57BL/6 mouse implanted with mouse B16-F10 cells assessed as change in liver histopathology at 10 mg/kg, ip administered once daily for 13 days by H&E staining based analysis; assay type: organism-based; conditions: in vivo, 312 h, time 13 day
[29] = Toxicity in C57BL/6 mouse implanted with mouse B16-F10 cells assessed as change in heart histopathology at 10 mg/kg, ip administered once daily for 13 days by H&E staining based analysis; assay type: organism-based; conditions: in vivo, 312 h, time 13 day
[30] = Toxicity in BALB/c mouse implanted with mouse CT26 cells assessed as weight loss at 10 mg/kg, ip QD co-administered with doxorubicin for 21 days; assay type: organism-based; conditions: in vivo, 504 h, time 21 day
[31] = tested on: B16-F10; assay: Antiproliferative activity against mouse B16-F10 cells assessed as reduction in cell viability incubated for 48 hrs by CCK-8 assay; assay type: functional, cell-based; conditions: B16-F10, 48 h
[32] = tested on: CT26; assay: Antitumor activity against mouse CT26 cells implanted in BALB/c mouse assessed as reduction in tumor volume at 10 mg/kg, ip administered once daily for 21 days relative to control; assay type: functional; parameters: scale not given: the % may be the effect or the level left; conditions: time 21 day
[33] = Apparent volume of distribution in male Sprague-Dawley rat at 10 mg/kg, po measured after 48 hrs by LC-MS/MS analysis; assay type: ADME, organism-based; conditions: in vivo
[34] = AUC (0 to infinity) in male Sprague-Dawley rat at 10 mg/kg, po measured after 48 hrs by LC-MS/MS analysis; assay type: ADME, organism-based; conditions: in vivo
[35] = Selectivity ratio of IC50 for antiproliferative activity against mouse CT26 cells to IC50 for synergistic antiproliferative activity against mouse CT26 cells in presence of doxorubicin; assay type: functional
[36] = AUC (0 to t) in male Sprague-Dawley rat at 10 mg/kg, po measured after 48 hrs by LC-MS/MS analysis; assay type: ADME, organism-based; conditions: in vivo

`Cc1cc2cccnc2cc1Nc1ncc2c(n1)N(C1CCOCC1)Cc1nncn1-2` gave an IC50 [1] of 4.9 µM, an Activity [2] of 1.12% and an Activity [3] of 5.17%. The half-life [4] was 60 min, the Activity [5] was “Active” and the inhibition [6] was “Dose-Dependent Effect”. The inhibition in vivo at 10 mg/kg [7] was 50.2%, the Vd [8] was 4.7 L/kg and the IC50 [9] was 4.1 µM. The C0 at 48 h [10] was 1000 ng/mL, the “Ratio IC50” value [11] was 30 and the AUC(0-t) at 48 h [12] was 604 ng·h/mL. The Activity [13] was “Non-Toxic”, the Activity [14] was 4.06% and the Cmax [15] was 324 ng/mL. The inhibition in vivo at 10 mg/kg [16] was 63.2%, the Activity [17] was “Active” and the Activity [18] was “Non-Toxic”. For the same compound, the AUC(0-inf) [19] was 605 ng·h/mL, the Activity [20] was 5.17% and the Activity [21] was “Non-Toxic”. The IC50 [22] was 0.6 µM, the Activity [23] was “Non-Toxic” and the IC50 [24] was 9.7 µM. The clearance [25] was 55 mL/min/kg, the Activity [26] was “inactive” and the Tmax [27] was 4.98 min. For the same compound, the Activity [28] was “Non-Toxic”, the Activity [29] was “Non-Toxic” and the Activity [30] was “Non-Toxic”. For the same compound, the IC50 [31] was 10.3 µM, the Activity [32] was 32.1% and the Vz [33] was 38.8 L/kg. The AUC(0-inf) [34] was 962 ng·h/mL, the “Ratio IC50” value [35] was 4.5 and the AUC(0-t) at 48 h [36] was 950 ng·h/mL.
